Like-named read-outs stand apart in the source and are kept apart here.
Assays:
YAPC = experiment: MTT cell viability assay; type: cell-based; conditions: Homo sapiens; for IC50: 48 h; for IC90: calculated via GraphPad QuickCalcs from MTT IC50 and slope factor
Procedure: (§1) Distinct MTT cell viability and crystal violet cell proliferation assays were performed to assess the cytotoxicity of the compounds 1–6 on 14 human cancer cell lines. In the viability assay, cells with intact mitochondria and thus active dehydrogenases are competent to convert MTT to the corresponding insoluble formazan. The formazan can be photometrically detected after solubilization and allows for indirect conclusions about the viability of the cells as an IC50 value. In the crystal violet assay, cells are stained by the binding of the dye to the chromatin, thus allowing for a quantification of biomass that remains adherent after a treatment in comparison with a control after a specific time. Potency is defined as the growth inhibitory concentration 50% (GI50).
(§2) In addition to performing the cell viability assay under normoxia (19% atmospheric oxygen), incubations were also conducted under hypoxic conditions, i.e., atmospheric oxygen levels of 1% during the treatment for 48 h. Hypoxia is a favorable condition of the tumor microenvironment that is connected with poor outcome. Therefore, the low oxygen condition mimics better the tumor environment. The biological effect of the pentathiepins under this condition provides insight into their dependency for oxygen, which has been postulated a key component in the proposed mechanism of action (Figure 3). Consistent with the proposed mechanism of action for five of the compounds, potency decreased under hypoxic conditions; in fact for 6, the half-maximal inhibitory concentration exceeded the highest tested concentration of 10 µM in four cell lines (Figure 6, Table S3). […] In contrast to the other compounds, in some cell lines, the cytotoxic effects of 1 were more pronounced under oxygen-reduced incubation conditions (Figure 6), indicating a tangential role of oxygen availability for this pentathiepin. Especially for the breast cancer cell line MCF-7, the cytotoxicity increased substantially, indicated by a decrease of the IC50 from >10.0 µM to about 1.0 µM.
(§3) The effect of the pentathiepins on the viability of the cell lines was assessed via an MTT assay, performed as previously described. Healthy and viable cells convert the yellow soluble 3-(4,5-dimethylthiazol-2-yl)-2,5-diphenyltetrazolium bromide to the insoluble purple corresponding formazan, which can be spectrophotometrically measured. For this assay, 5000 cells (1 250 for LCLC-103H) in 0.1 mL of medium were seeded per well of a 96-well plate and incubated at standard conditions for 24 h prior to treatment. A serial dilution of the test compounds was prepared in medium, covering final concentrations from 10.0 to 0.04 µM, and 0.1 mL of the working solution was added to each well in triplicate. After 48 h, 20 µL of a 2.5 mg/mL MTT in PBS solution was pipetted into each well and further incubated for 4 h at standard conditions. Thereafter, medium was replaced with 50 µL DMSO, and the plates were put on a shaker for 5 min and subsequently read at λ = 570 nm, with a SpectraMax 384plus (Molecular Devices, Sunnyvale, CA, USA). The cell viabilities of the treatment conditions were calculated in relation to a solvent control sample. The absolute IC50 was calculated via nonlinear regression followed by interpolation of the dose–response graphs in Prism 7 (GraphPad, San Diego, CA, USA). The IC90 was derived from the IC50 by using the slope factor of the dose–response graph with the tool QuickCalcs from GraphPad (GraphPad Software, San Diego, CA, USA).

A-427 = experiment: MTT cell viability assay; type: cell-based; conditions: Homo sapiens, 48 h
Procedure: as §1, §2, §3

HAP-1.KO.GPx1 = experiment: MTT cell viability assay; type: cell-based; conditions: Homo sapiens; for IC50: 48 h; for IC90: calculated via GraphPad QuickCalcs from MTT IC50 and slope factor
Procedure: as §1, §2, §3

A2780 = experiment: MTT cell viability assay; type: cell-based; conditions: Homo sapiens; for IC50: 48 h; for IC90: calculated via GraphPad QuickCalcs from MTT IC50 and slope factor
Procedure: as §1, §2, §3

RT-4 = experiment: MTT cell viability assay; type: cell-based; conditions: Homo sapiens, 48 h
Procedure: as §1, §2, §3

PATU-8902 = experiment: MTT cell viability assay; type: cell-based; conditions: Homo sapiens; for IC50: 48 h; for IC90: calculated via GraphPad QuickCalcs from MTT IC50 and slope factor
Procedure: as §1, §2, §3

Kyse-70 = experiment: MTT cell viability assay; type: cell-based; conditions: Homo sapiens, 48 h
Procedure: as §1, §2, §3

DanG = experiment: MTT cell viability assay; type: cell-based; conditions: Homo sapiens; for IC50: 48 h; for IC90: calculated via GraphPad QuickCalcs from MTT IC50 and slope factor
Procedure: as §1, §2, §3

LCLC-103H = experiment: MTT cell viability assay; type: cell-based; conditions: Homo sapiens, 48 h
Procedure: as §1, §2, §3

RT-112 = experiment: MTT cell viability assay; type: cell-based; conditions: Homo sapiens, 48 h
Procedure: as §1, §2, §3

HAP-1 = experiment: MTT cell viability assay; type: cell-based; conditions: Homo sapiens; for IC50: HAP1, 48 h; for IC90: HAP1, calculated via GraphPad QuickCalcs from MTT IC50 and slope factor
Procedure: as §1, §2, §3

A2780cis = experiment: MTT cell viability assay; type: cell-based; conditions: Homo sapiens, 48 h
Procedure: as §1, §2, §3

Siso = experiment: MTT cell viability assay; type: cell-based; conditions: Homo sapiens; for IC50: 48 h; for IC90: calculated via GraphPad QuickCalcs from MTT IC50 and slope factor
Procedure: as §1, §2, §3

[1] = test system: HAP-1, HAP-1.KO.GPx1, Siso and A2780 cells; experiment: cellular morphology after 24 h; type: cell-based, human; set-up: key: no impact (0); weak impact (+); strong impact (++); conditions: summary grade
Text: All new pentathiepins induced apoptosis, although to different extents and in a cell line-dependent manner. […] In the corresponding GPx1-knockout cell line, the effect of doxorubicin was higher (about 50%), whereas only two of the pentathiepins induced apoptosis, namely, 3 and 5. The fractions of early apoptotic cells were 34 and 15%, respectively, and the population of late apoptotic cells 6% for 3. In the ovarian carcinoma cell line A2780 the overall effects were marginal, but all compounds except 6 increased the percentage of early apoptotic cells to 6–14%, with 3 resulting in the highest amount. In the Siso cell line, pentathiepin 3 increased both the number of early and late apoptotic cells to about 20%, which exceeded the effects of doxorubicine (0.5 µM). These findings were further corroborated by the observation of morphological features such as membrane blebbing and cell shrinkage as particular hallmarks of apoptosis (Figure S51).
Figure S51: Representative images of cellular morphology after an incubation for 24 h with the respective pentathiepins 1-6 (IC90) or a corresponding volume of DMF as negative control in HAP-1, HAP-1.KO.GPx1, Siso and A2780 cells. Arrows denote membrane blebbing, dashed arrows label cell shrinkage.
(1 picture or pasted object on this page, not shown here)

[2] = hypoxic (1% O2), read-out: IC50 MTT-H mean
[3] = normoxic (19% O2), read-out: IC50 MTT-N mean

Q: Which results are given for CCOc1c2c(c3ccc(C(=O)N4CCOCC4)cn13)SSSSS2 [Compound 3, (6-Ethoxy-[1,2,3,4,5]pentathiepino[6,7-a]indolizin-9-yl)(morpholino)methanone]?
A: IC50 (YAPC; [2]): 2370 nM; IC50 (YAPC; [3]): 1220 nM; IC90 (YAPC): 2240 nM; IC50 (A-427; [2]): 959 nM; IC50 (A-427; [3]): 785 nM; IC50 (HAP-1.KO.GPx1; [2]): 911 nM; IC50 (HAP-1.KO.GPx1; [3]): 368 nM; IC90 (HAP-1.KO.GPx1): 800 nM; IC50 (A2780; [2]): 616 nM; IC50 (A2780; [3]): 135 nM; IC90 (A2780): 360 nM; IC50 (RT-4; [2]): 2310 nM; IC50 (RT-4; [3]): 878 nM; IC50 (PATU-8902; [2]): 2340 nM; IC50 (PATU-8902; [3]): 1050 nM; IC90 (PATU-8902): 2480 nM; IC50 (Kyse-70; [2]): 2290 nM; IC50 (Kyse-70; [3]): 824 nM; IC50 (DanG; [2]): 2660 nM; IC50 (DanG; [3]): 1450 nM; IC90 (DanG): 2540 nM; IC50 (LCLC-103H; [2]): 820 nM; IC50 (LCLC-103H; [3]): 571 nM; IC50 (RT-112; [2]): 1470 nM; IC50 (RT-112; [3]): 1050 nM; IC50 (HAP-1; [2]): 657 nM; IC50 (HAP-1; [3]): 263 nM; IC90 (HAP-1): 620 nM; IC50 (A2780cis; [2]): 316 nM; IC50 (A2780cis; [3]): 206 nM; IC50 (Siso; [2]): 2730 nM; IC50 (Siso; [3]): 573 nM; IC90 (Siso): 1230 nM; Morphological changes [1]: ++

Q: Which IC50 (YAPC; [2]) does the source give for CCOc1c2c(c3ccc(C(=O)N(CC)CC)cn13)SSSSS2 [Compound 4, 6-Ethoxy-N,N’-diethyl-[1,2,3,4,5]pentathiepino[6,7-a]indolizine-9-carboxamide] here?
A: 2210 nM

Q: What about the IC50 (YAPC; [3]) of the same molecule?
A: 1150 nM

Q: What about the IC90 (YAPC) of the same molecule?
A: 3700 nM

Q: And the IC50 (A-427; [2])?
A: 1190 nM

Q: What about the IC50 (A-427; [3]) of the same molecule?
A: 1090 nM

Q: And the IC50 (HAP-1.KO.GPx1; [2])?
A: 1180 nM

Q: And the IC50 (HAP-1.KO.GPx1; [3])?
A: 322 nM

Q: What about the IC90 (HAP-1.KO.GPx1) of the same molecule?
A: 640 nM

Q: What about the IC50 (A2780; [2]) of the same molecule?
A: 799 nM

Q: What about the IC50 (A2780; [3]) of the same molecule?
A: 213 nM

Q: What about the IC90 (A2780) of the same molecule?
A: 610 nM

Q: And the IC50 (RT-4; [2])?
A: 2220 nM

Q: And the IC50 (RT-4; [3])?
A: 1310 nM

Q: And the IC50 (PATU-8902; [2])?
A: 1270 nM

Q: And the IC50 (PATU-8902; [3])?
A: 823 nM

Q: And the IC90 (PATU-8902)?
A: 6000 nM

Q: What about the IC50 (Kyse-70; [2]) of the same molecule?
A: 3600 nM

Q: And the IC50 (Kyse-70; [3])?
A: 976 nM

Q: And the IC50 (DanG; [2])?
A: 4460 nM

Q: And the IC50 (DanG; [3])?
A: 1650 nM

Q: What about the IC90 (DanG) of the same molecule?
A: 2710 nM

Q: And the IC50 (LCLC-103H; [2])?
A: 827 nM

Q: What about the IC50 (LCLC-103H; [3]) of the same molecule?
A: 674 nM

Q: And the IC50 (RT-112; [2])?
A: 1780 nM

Q: What about the IC50 (RT-112; [3]) of the same molecule?
A: 1200 nM

Q: And the IC50 (HAP-1; [2])?
A: 832 nM

Q: And the IC50 (HAP-1; [3])?
A: 263 nM

Q: What about the IC90 (HAP-1) of the same molecule?
A: 510 nM

Q: And the IC50 (A2780cis; [2])?
A: 544 nM

Q: What about the IC50 (A2780cis; [3]) of the same molecule?
A: 399 nM

Q: What about the IC50 (Siso; [2]) of the same molecule?
A: 4240 nM

Q: And the IC50 (Siso; [3])?
A: 934 nM

Q: What about the IC90 (Siso) of the same molecule?
A: 1930 nM

Q: And the Morphological changes [1]?
A: ++

Q: With CCOc1c2c(c3ccc(C(=O)N4CCN(C(=O)c5ccc(F)cc5)CC4)cn13)SSSSS2 [Compound 5, (6-Ethoxy-[1,2,3,4,5]pentathiepino[6,7-a]indolizin-9-yl)(4-(4-fluorobenzoyl)piperazinyl)methanone] as the molecule, how does the IC50 (YAPC; [2]) read?
A: 1520 nM

Q: And the IC50 (YAPC; [3])?
A: 1360 nM

Q: What about the IC90 (YAPC) of the same molecule?
A: 2200 nM

Q: What about the IC50 (A-427; [2]) of the same molecule?
A: 834 nM

Q: What about the IC50 (A-427; [3]) of the same molecule?
A: 906 nM

Q: And the IC50 (HAP-1.KO.GPx1; [2])?
A: 912 nM

Q: What about the IC50 (HAP-1.KO.GPx1; [3]) of the same molecule?
A: 413 nM

Q: And the IC90 (HAP-1.KO.GPx1)?
A: 720 nM

Q: And the IC50 (A2780; [2])?
A: 588 nM

Q: What about the IC50 (A2780; [3]) of the same molecule?
A: 259 nM

Q: And the IC90 (A2780)?
A: 510 nM

Q: And the IC50 (RT-4; [2])?
A: 1740 nM

Q: And the IC50 (RT-4; [3])?
A: 716 nM

Q: And the IC50 (PATU-8902; [2])?
A: 1560 nM

Q: And the IC50 (PATU-8902; [3])?
A: 1200 nM

Q: And the IC90 (PATU-8902)?
A: 2570 nM

Q: What about the IC50 (Kyse-70; [2]) of the same molecule?
A: 1520 nM

Q: And the IC50 (Kyse-70; [3])?
A: 826 nM

Q: And the IC50 (DanG; [2])?
A: 1620 nM

Q: And the IC50 (DanG; [3])?
A: 1180 nM

Q: And the IC90 (DanG)?
A: 2050 nM

Q: And the IC50 (LCLC-103H; [2])?
A: 677 nM

Q: And the IC50 (LCLC-103H; [3])?
A: 800 nM

Q: What about the IC50 (RT-112; [2]) of the same molecule?
A: 1120 nM

Q: And the IC50 (RT-112; [3])?
A: 1080 nM

Q: And the IC50 (HAP-1; [2])?
A: 661 nM

Q: What about the IC50 (HAP-1; [3]) of the same molecule?
A: 270 nM

Q: What about the IC90 (HAP-1) of the same molecule?
A: 490 nM

Q: And the IC50 (A2780cis; [2])?
A: 449 nM

Q: What about the IC50 (A2780cis; [3]) of the same molecule?
A: 308 nM

Q: And the IC50 (Siso; [2])?
A: 1850 nM

Q: What about the IC50 (Siso; [3]) of the same molecule?
A: 794 nM

Q: And the IC90 (Siso)?
A: 1470 nM

Q: And the Morphological changes [1]?
A: ++
